How the values were obtained:
Protein kinase G = Protein kinase G activity in 9-week TAC hearts; type: in vivo, mouse; conditions: treatment during weeks 5-9
Source text: Protein kinase G activity increased nominally over time in 9-week TAC hearts, although this falls just short of statistical significance. […] Rather, the prior data supports an effect on reducing oxidant stress and re-coupling nitric oxide synthase.

[1] = system: Adult myocytes isolated from wild-type C57/B16 mouse hearts; assay: Sarcomere shortening of isolated adult myocytes exposed to isoproterenol; type: cell-based
[2] = system: intact heart, beta-adrenergic stimulation by ISO; assay: Contractility response of intact heart to isoproterenol (ISO); type: in vivo, mouse
Source text: Regulation of acute beta-adrenergic stress by PDE5a inhibition (resulting in a rise in cGMP and activation of protein kinase G) requires the activity of nitric oxide synthase (NOS). […] This can be offset by chronic distal activation of the NO target protein soluble guanylate cyclase 9sGC). At the left are bars depicting the contractility response of an intact heart to ISO before and after co-administration of SIL. The ISO response is normally blunted by nearly 80%. The middle bars show data from mice with NOS inhibited by L-NAME (1 mg/L in drinking water). […] However, if one continues to treat hearts with the soluble guanylate cyclase activator (BAY 41-8543) for a week-all the while continuing NOS inhibition with L-NAME, the ability of SIL to suppress adrenergic stimulation is restored.

SMILES: CCCc1nn(C)c2c(=O)[nH]c(-c3cc(S(=O)(=O)N4CCN(C)CC4)ccc3OCC)nc12 [Sildenafil, sildenafil]
- PKG activity (Protein kinase G): significantly increased
- ability to blunt the isoproterenol response ([1]; myocytes from hypertrophied and dilated hearts (3-4 weeks TAC), p=0.04): markedly diminished
- blunting of isoproterenol-increased sarcomere shortening ([1]; wild-type myocytes, isoproterenol 10 micromolar, sildenafil 0.1): ~25%
- blunting of ISO contractility response ([2]; intact heart, co-administration of SIL): ~80%
- inhibition of ISO response with NOS inhibited ([2]; mice given L-NAME 1 mg/L in drinking water for 1 week): no longer inhibited
